These results are taken from patent US8273773B2 (priority 2008, dated 2012).
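Wherever IC50 is given: recombinant His-tagged enzyme from E. coli, radiolabeled nucleotide incorporation into acid-insoluble RNA read by scintillation after filtration, no-enzyme background subtracted, activity relative to positive control.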

One series deals with T1, HCV polymerase (NS5B570n-Con1) (Hepatitis C virus genotype 1b, UniProt Q9WMX2).
T1 construct: contains a 21 amino acid deletion at the C-terminus relative to the full-length HCV polymerase; 6-histidine (N); made in house; host or cells: E. coli strain BL21(DE) pLysS (pET17b)
The series is described as follows: biochemical. The arrangement: species or system HCV Con1 strain. The settings on record: IC50 HCV NS5B RNA Polymerase Assay (values with asterisk), values with asterisk: cIRES RNA template, 3 nM NS5B570n-Con1.
In general, IC50 refers to the concentration needed to halve the response being measured. Low values mean inhibition by little substance, high ones a need for much substance. `COc1c(/C=C/c2ccc(NS(C)(=O)=O)cn2)cc(-c2ccc[nH]c2=O)cc1C1(C(F)F)CC1` [I-258, N-(6-{(E)-2-[3-(1-Difluoromethyl-cyclopropyl)-2-methoxy-5-(2-oxo-1,2-dihydro-pyridin-3-yl)-phenyl]-vinyl}-pyridin-3-yl)-methanesulfonamide] returned an IC50 of 1 nM.

`COc1c(/C=C/c2ccc(NS(C)(=O)=O)cn2)cc(-c2cc(Cl)c[nH]c2=O)cc1C(C)(C)C` [I-261] showed an IC50 of 3 nM. Compared with the last compound, the IC50 is about 3-fold higher.

Regarding `COc1c(/C=C/c2ccc(NS(C)(=O)=O)cc2)cc(-c2cc(Cl)c[nH]c2=O)cc1C1(Cl)CC1` [I-264], 5 nM corresponded to half-maximal inhibition (IC50).

Turning to `COc1c(/C=C/c2ccc(NS(C)(=O)=O)cc2)cc(-c2ccc(C)[nH]c2=O)cc1C1(Cl)CC1` [I-265], the IC50 is 5 nM.

`COc1c(/C=C/c2ccc(NS(C)(=O)=O)cc2)cc(-c2ccc[nH]c2=O)cc1C1(OC)CC1` [I-266, N-(4-{(E)-2-[3-(1-methoxycyclopropyl)-5-(2-oxo-1,2-dihydropyridin-3-yl)-2-methoxyphenyl]vinyl}-phenyl)methanesulfonamide] returned an IC50 of 3 nM.

`COc1c(/C=C/c2ccc(NS(C)(=O)=O)cc2)cc(-c2cc(F)c[nH]c2=O)cc1C1(C(F)F)CC1` [I-269, N-(4-{(E)-2-[3-(1-Difluoromethyl-cyclopropyl)-5-(5-fluoro-2-oxo-1,2-dihydro-pyridin-3-yl)-2-methoxy-phenyl]-vinyl}-phenyl)-methanesulfonamide] returned an IC50 of 3 nM.

The compound `CS(=O)(=O)Nc1ccc(/C=C/c2cc(-c3ccc[nH]c3=O)cc(C3(F)CCC3)c2)cc1` [I-271, N-(4-{(E)-2-[3-(1-Fluoro-cyclobutyl)-5-(2-oxo-1,2-dihydro-pyridin-3-yl)-phenyl]-vinyl}-phenyl)-methanesulfonamide] yielded an IC50 of 4 nM. The IC50 values of the last two compounds are within 1.5-fold of each other.

`CC(C)(CO)c1cc(/C=C/c2ccc(NS(C)(=O)=O)cc2)cc(-c2ccc[nH]c2=O)c1` [I-272, N-(4-{(E)-2-[3-(2-Hydroxy-1,1-dimethyl-ethyl)-5-(2-oxo-1,2-dihydro-pyridin-3-yl)-phenyl]-vinyl}-phenyl)-methanesulfonamide] showed an IC50 of 6 nM.

`CS(=O)(=O)Nc1ccc(/C=C/c2cc(-c3cc(F)c[nH]c3=O)cc(C3(Cl)CC3)c2)cc1` [I-273, N-(4-{(E)-2-[3-(1-Chloro-cyclopropyl)-5-(5-fluoro-2-oxo-1,2-dihydro-pyridin-3-yl)-phenyl]-vinyl}-phenyl)-methanesulfonamide] returned an IC50 of 3 nM.

Compound `CS(=O)(=O)Nc1ccc(/C=C/c2cc(-c3ccc[nH]c3=O)cc(C3(Cl)CC3)c2)cc1` [I-274, N-(4-{(E)-2-[3-(1-Chloro-cyclopropyl)-5-(2-oxo-1,2-dihydro-pyridin-3-yl)-phenyl]-vinyl}-phenyl)-methanesulfonamide] came in with an IC50 of 2 nM.

For the compound `CS(=O)(=O)Nc1ccc(/C=C/c2cc(-c3ccc[nH]c3=O)cc(C3(C(F)F)CC3)c2)cc1` [I-275, N-(4-{(E)-2-[3-(1-Difluoromethyl-cyclopropyl)-5-(2-oxo-1,2-dihydro-pyridin-3-yl)-phenyl]-vinyl}-phenyl)-methanesulfonamide], 1 nM corresponded to half-maximal inhibition (IC50).

On to `COc1c(/C=C/c2ccc(NS(C)(=O)=O)cc2)cc(-c2ccc[nH]c2=O)cc1C(C)(C)OC` [I-289, N-(4-{(E)-2-[2-Methoxy-3-(1-methoxy-1-methyl-ethyl)-5-(2-oxo-1,2-dihydro-pyridin-3-yl)-phenyl]-vinyl}-phenyl)-methanesulfonamide], for which it took 2 nM to reach half-maximal inhibition (IC50).

With `COc1c(/C=C/c2ccc(NS(C)(=O)=O)cc2)cc(-c2cc(Cl)c[nH]c2=O)cc1C1(C)COC1` [I-291], half-maximal inhibition (IC50) required 2 nM.

In turn, `COc1c(/C=C/c2ccc(NS(C)(=O)=O)cc2)cc(-c2cc(Cl)c[nH]c2=O)cc1C1CC1` [I-292, N-(4-{(E)-2-[5-(5-Chloro-2-oxo-1,2-dihydro-pyridin-3-yl)-3-cyclopropyl-2-methoxy-phenyl]-vinyl}-phenyl)-methanesulfonamide] returned an IC50 of 29 nM.

Staying with this series, now noted: IC50 HCV NS5B RNA Polymerase Assay, values without asterisk; 20 nM NS5B570n-Con1 enzyme, 20 nM cIRES RNA template.
The compound `CC(C)(C)c1ccc(O)c(-c2ccc[nH]c2=O)c1` [I-2] displayed an IC50 of 3580 nM.

`Cc1cc(-c2ccc[nH]c2=O)cc(C(C)(C)C)c1` [I-3]: the IC50 worked out at 525 nM.

Take `CCOc1ccc(-c2ccc[nH]c2=O)cc1C(C)(C)C` [I-5]: the IC50 is 4680 nM.

`CC(C)(C)c1cc(-c2ccc[nH]c2=O)ccc1OC(F)F` [I-6, 3-(3-tert-Butyl-4-difluoromethoxy-phenyl)-1H-pyridin-2-one] came in with a 50% inhibitory concentration (IC50) of 2570 nM.

`COCCNc1ccc(C(=O)Nc2cc(-c3ccc[nH]c3=O)cc(C(C)(C)C)c2OC)cn1` [I-254, N-[3-tert-Butyl-2-methoxy-5-(2-oxo-1,2-dihydro-pyridin-3-yl)-phenyl]-6-(2-methoxy-ethylamino)-nicotinamide]: the IC50 stood at 141 nM.

In turn, `COc1c(NC(=O)c2ccc(NC3CC3)nc2)cc(-c2ccc[nH]c2=O)cc1C(C)(C)C` [I-255, N-[3-tert-Butyl-2-methoxy-5-(2-oxo-1,2-dihydro-pyridin-3-yl)-phenyl]-6-cyclopropylamino-nicotinamide] returned an IC50 of 70 nM.

On to `COc1c(NC(=O)c2ccc(NC3CC3)cc2)cc(-c2ccc[nH]c2=O)cc1C(C)(C)C` [I-256, N-[3-tert-Butyl-2-methoxy-5-(2-oxo-1,2-dihydro-pyridin-3-yl)-phenyl]4-cyclopropylamino-benzamide], for which the IC50 was found to be 19 nM.

In the case of `COCCNc1ccc(C(=O)Nc2cc(-c3ccc[nH]c3=O)cc(C(C)(C)C)c2OC)cc1` [I-257, N-[3-tert-Butyl-2-methoxy-5-(2-oxo-1,2-dihydro-pyridin-3-yl)-phenyl]-4-(2-methoxy-ethylamino)-benzamide], the half-maximal inhibitory concentration (IC50) came out at 184 nM.

As to `COc1c(C(=O)Nc2cccc(NS(C)(=O)=O)c2)cc(-c2ccc[nH]c2=O)cc1C(C)(C)C` [I-259, 3-tert-Butyl-N-(3-methanesulfonylamino-phenyl)-2-methoxy-5-(2-oxo-1,2-dihydro-pyridin-3-yl)-benzamide], the IC50 was 122 nM.

`COc1c(C(=O)NC2CCC(NS(C)(=O)=O)CC2)cc(-c2ccc[nH]c2=O)cc1C(C)(C)C` (stereo not shown) [I-260, 3-tert-Butyl-N-(4-methanesulfonylamino-cyclohexyl)-2-methoxy-5-(2-oxo-1,2-dihydro-pyridin-3-yl)-benzamide] showed an IC50 of 35 nM.

Consider `COCCOc1cc(NS(C)(=O)=O)ccc1C(=O)Nc1cc(-c2ccc[nH]c2=O)cc(C(C)(C)C)c1OC` [I-276, N-[3-tert-Butyl-2-methoxy-5-(2-oxo-1,2-dihydro-pyridin-3-yl)-phenyl]-4-methanesulfonylamino-2-(2-methoxy-ethoxy)-benzamide], for which the IC50 was 20 nM.

In turn, `COc1c(NC(=O)c2ccc(NC(C)=O)cc2)cc(-c2ccc[nH]c2=O)cc1C(C)(C)C` [I-277] returned a 50% inhibitory concentration (IC50) of 357 nM. This IC50 is about 18-fold higher than that of the compound before.

Compound `COc1c(NC(=O)c2ccc(N)c(C)c2)cc(-c2ccc[nH]c2=O)cc1C(C)(C)C` [I-278] had an IC50 of 14 nM.

In turn, `COc1c(NC(=O)c2ccc(N)cc2C(F)(F)F)cc(-c2ccc[nH]c2=O)cc1C(C)(C)C` [I-279] registered an IC50 of 104 nM.

In turn, `COc1c(NC(=O)c2ccc(N)cc2F)cc(-c2ccc[nH]c2=O)cc1C(C)(C)C` [I-280] showed an IC50 of 10 nM.

`COc1c(NC(=O)c2ccc(NS(C)(=O)=O)cc2F)cc(-c2ccc[nH]c2=O)cc1C(C)(C)C` [I-281] showed an IC50 of 7 nM.

For `COc1c(NC(=O)c2ccc(NS(C)(=O)=O)cc2C)cc(-c2ccc[nH]c2=O)cc1C(C)(C)C` [I-282], the midpoint of inhibition, the IC50, lay at 13 nM.

The compound `COc1c(NC(=O)c2ccc(N)cn2)cc(-c2ccc[nH]c2=O)cc1C(C)(C)C` [I-283] returned an IC50 of 9 nM. This IC50 and that of the compound before are within 1.5-fold of each other.

Compound `COc1c(NC(=O)c2ccc(N)cc2OCCN(C)C)cc(-c2ccc[nH]c2=O)cc1C(C)(C)C` [I-284] had an IC50 of 6270 nM.

The compound `COc1c(NC(=O)c2ccc(NS(C)(=O)=O)cc2OCCN(C)C)cc(-c2ccc[nH]c2=O)cc1C(C)(C)C` [I-285] registered an IC50 of 149 nM.

Compound `COc1c(NC(=O)c2ccc(NS(C)(=O)=O)cc2)cc(-c2ccc(C)[nH]c2=O)cc1C(C)(C)C` [I-286] came in with an IC50 of 19 nM.

Consider `COc1c(CCc2ccc(NS(C)(=O)=O)cc2)cc(-c2ccc[nH]c2=O)c(F)c1C(C)(C)C` [I-287, N-(4-{2-[3-tert-Butyl-4-fluoro-2-methoxy-5-(2-oxo-1,2-dihydro-pyridin-3-yl)-phenyl]-ethyl}-phenyl)-methanesulfonamide], for which the IC50 amounted to 9 nM.

Compound `CN(C(=O)c1ccc(NS(C)(=O)=O)cc1)c1cc(-c2ccc[nH]c2=O)cc(C(C)(C)C)c1` [I-293, N-[3-tert-Butyl-5-(2-oxo-1,2-dihydro-pyridin-3-yl)-phenyl]-4-methanesulfonylamino-N-methyl-benzamide] returned an IC50 of 7 nM.

The compound `CCOc1nc(-c2cc(-c3ccc[nH]c3=O)cc(C(C)(C)C)c2OC)cc2ccc(NS(C)(=O)=O)cc12` [II-9, N-{3-[3-tert-Butyl-2-methoxy-5-(2-oxo-1,2-dihydro-pyridin-3-yl)-phenyl]-1-ethoxy-isoquinolin-7-yl}-methanesulfonamide] showed a half-maximal inhibitory concentration (IC50) of 3 nM.

System in another series: not given
Experiment: not given
Settings: not given
The melting point is the temperature of the solid-liquid transition. `CS(=O)(=O)Nc1ccc(/C=C/c2cc(-c3ccc[nH]c3=O)cc(C3(CO)CC3)c2)cc1` gave a melting point of 148 to 150 °C.

`COc1c(/C=C/c2ccc(NS(C)(=O)=O)cn2)cc(-c2ccc[nH]c2=O)cc1C(C)(C)C` displayed a melting point of 293 to 295 °C.

Consider `COc1c(/C=C/c2ccc(NS(C)(=O)=O)cc2)cc(-c2cc(F)cn(COC(=O)[C@@H](N)C(C)C)c2=O)cc1C(C)(C)C`, for which the melting point was 188 to 190 °C.

`COc1c(/C=C/c2ccc(NS(C)(=O)=O)cc2)cc(-c2cc(F)cn(COP(=O)(O)O)c2=O)cc1C(C)(C)C` returned a melting point of 175 to 178 °C.

Consider `CC(C)(C)c1ccc(O)c(-c2ccc[nH]c2=O)c1` [I-2], for which the melting point is 211 to 212 °C.

Compound `Cc1cc(-c2ccc[nH]c2=O)cc(C(C)(C)C)c1` [I-3] displayed a melting point of 224 to 225 °C.

`CCOc1ccc(-c2ccc[nH]c2=O)cc1C(C)(C)C` [I-5] showed a melting point of 201 to 202 °C.

In the case of `CC(C)(C)c1cc(-c2ccc[nH]c2=O)ccc1OC(F)F` [I-6, 3-(3-tert-Butyl-4-difluoromethoxy-phenyl)-1H-pyridin-2-one], the melting point lay within 174 to 175 °C.
